The experiment addresses hDGAT2 (Homo sapiens (Human), UniProt Q96PD7). Nature of the experiment: DGAT2 enzymatic activity assay (triolein formation, LC/MS/MS). The following applies: read-out: IC50 values for inhibition of DGAT2; membrane prep of Sf-9 cells expressing hDGAT2; 25 μM diolein, 10 μM oleoyl-CoA; room temperature; triolein by LC/MS/MS.
Sequence of hDGAT2 (Q96PD7 whole entry): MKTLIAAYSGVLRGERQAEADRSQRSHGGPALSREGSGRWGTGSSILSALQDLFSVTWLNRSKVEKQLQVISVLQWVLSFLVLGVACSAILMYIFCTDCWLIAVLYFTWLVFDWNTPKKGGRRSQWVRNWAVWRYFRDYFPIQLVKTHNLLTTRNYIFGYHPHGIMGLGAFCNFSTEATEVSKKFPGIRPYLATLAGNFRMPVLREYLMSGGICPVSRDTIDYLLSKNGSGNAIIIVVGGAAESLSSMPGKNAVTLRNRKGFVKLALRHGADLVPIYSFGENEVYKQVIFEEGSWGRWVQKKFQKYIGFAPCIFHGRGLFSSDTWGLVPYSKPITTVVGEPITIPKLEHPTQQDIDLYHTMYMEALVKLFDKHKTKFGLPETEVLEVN
The IC50 is the point on the concentration scale where inhibition reaches its midpoint. As to `COc1cccc(-c2ccc(CNC(=O)c3cn(Cc4ccccc4)nn3)c3cnccc23)c1` [Example 113, 1-benzyl-N-((5-(3-methoxyphenyl)isoquinolin-8-yl)methyl)-1H-1,2,3-triazole-4-carboxamide], the IC50 is 5.89 µM.

Regarding `COc1cccc(-c2ccc(CNC(=O)C(C)(C)Oc3cc(C(F)(F)F)ccn3)c3cnccc23)c1` [Example 114, N-((5-(3-methoxyphenyl)isoquinolin-8-yl)methyl)-2-methyl-2-((4-(trifluoromethyl)pyridin-2-yl)oxy)propanamide], the IC50 amounted to 6.11 µM.

Consider `COc1cccc(-c2ccc(CNC(=O)c3cnn(Cc4ccccc4)c3)c3cnccc23)c1` [Example 115, 1-benzyl-N-((5-(3-methoxyphenyl)isoquinolin-8-yl)methyl)-1H-pyrazole-4-carboxamide], for which the IC50 was found to be 3.39 µM.

Take `COc1cccc(-c2ccc(CNC(=O)C(F)(F)c3ccc(Br)cn3)c3cnccc23)c1` [Example 116, 2-(5-bromopyridin-2-yl)-2,2-difluoro-N-((5-(3-methoxyphenyl)isoquinolin-8-yl)methyl)acetamide]: the IC50 is 8.13 µM.

Turning to `COc1cccc(-c2ccc(CNC(=O)c3cc(C)n(Cc4ccccc4)n3)c3cnccc23)c1` [Example 117, 1-benzyl-N-((5-(3-methoxyphenyl)isoquinolin-8-yl)methyl)-5-methyl-1H-pyrazole-3-carboxamide], the IC50 was determined as 0.942 µM.

On to `COc1cccc(-c2ccc(CNC(=O)c3cncc(C(F)(F)F)c3)c3cnccc23)c1` [Example 119, N-((5-(3-methoxyphenyl)isoquinolin-8-yl)methyl)-5-(trifluoromethyl)nicotinamide], for which the concentration for half-maximal inhibition (IC50) was 5.89 µM.

Take `COc1cccc(-c2ccc(CNC(=O)c3cc(Br)cnc3-c3ccccc3)c3cnccc23)c1` [Example 120, 5-bromo-N-((5-(3-methoxyphenyl)isoquinolin-8-yl)methyl)-2-phenylnicotinamide]: the half-maximal inhibitory concentration (IC50) was 4.24 µM.

`COc1cccc(-c2ccc(CNC(=O)c3cc(Br)cnc3C(F)(F)F)c3cnccc23)c1` [Example 121, 5-bromo-N-((5-(3-methoxyphenyl)isoquinolin-8-yl)methyl)-2-(trifluoromethyl)nicotinamide]: the IC50 was 1.18 µM.

In the case of `COc1cccc(-c2ccc(CNC(=O)C3(c4ccc(C(F)(F)F)cc4)CCC3)c3cnccc23)c1` [Example 123, N-((5-(3-methoxyphenyl)isoquinolin-8-yl)methyl)-1-(4-(trifluoromethyl)phenyl)cyclobutanecarboxamide], the IC50 was 0.513 µM.

Take `COc1cccc(-c2ccc(CNC(=O)C(F)c3ccc(C(F)(F)F)cc3)c3cnccc23)c1` (stereo not shown) [Example 124, 2-fluoro-N-((5-(3-methoxyphenyl)isoquinolin-8-yl)methyl)-2-(4-(trifluoromethyl)phenyl)acetamide]: the IC50 was 2.33 µM.

For `COc1cccc(-c2ccc(CNC(=O)C(c3ccc(C(F)(F)F)cc3)C(C)C)c3cnccc23)c1` (stereo not shown) [Example 125, N-((5-(3-methoxyphenyl)isoquinolin-8-yl)methyl)-3-methyl-2-(4-(trifluoromethyl)phenyl)butanamide], the IC50 came to 2.46 µM.

Turning to `COc1cccc(-c2ccc(CNC(=O)c3cnccc3C(F)(F)F)c3cnccc23)c1` [Example 127, N-((5-(3-methoxyphenyl)isoquinolin-8-yl)methyl)-4-(trifluoromethyl)nicotinamide], the IC50 was determined as 1.42 µM.

`COc1cccc(-c2ccc(CNC(=O)C3CCN(c4ccc(C(F)(F)F)cc4)CC3)c3cnccc23)c1` [Example 128, N-((5-(3-methoxyphenyl)isoquinolin-8-yl)methyl)-1-(4-(trifluoromethyl)phenyl)piperidine-4-carboxamide]: the IC50 came to 0.952 µM.

Consider `COc1cccc(-c2ccc(CNC(=O)c3cncc(-c4ccccc4)c3)c3cnccc23)c1` [Example 129, N-((5-(3-methoxyphenyl)isoquinolin-8-yl)methyl)-5-phenylnicotinamide], for which the IC50 amounted to 2.99 µM.

As to `COc1cccc(-c2ccc(CNC(=O)C34CC(C3)C4)c3cnccc23)c1` [Example 130, N-((5-(3-methoxyphenyl)isoquinolin-8-yl)methyl)bicyclo[1.1.1]pentane-1-carboxamide], the IC50 worked out at 0.268 µM.

On to `COc1cccc(-c2ccc(CNC(=O)c3cc(Br)cnc3F)c3cnccc23)c1` [Example 131, 5-bromo-2-fluoro-N-((5-(3-methoxyphenyl)isoquinolin-8-yl)methyl)nicotinamide], for which the IC50 was 0.401 µM.

As for `COc1cccc(-c2ccc(CNC(=O)c3cnn(-c4ccccc4)c3C(F)(F)F)c3cnccc23)c1` [Example 132, N-((5-(3-methoxyphenyl)isoquinolin-8-yl)methyl)-1-phenyl-5-(trifluoromethyl)-1H-pyrazole-4-carboxamide], the IC50 was determined as 3.94 µM.

Consider `COc1cccc(-c2ccc(CNC(=O)c3ccnc(C(F)(F)F)c3)c3cnccc23)c1` [Example 133, N-((5-(3-methoxyphenyl)isoquinolin-8-yl)methyl)-2-(trifluoromethyl)isonicotinamide], for which the IC50 was found to be 0.571 µM.

As to `COc1cccc(-c2ccc(CNC(=O)C(C)c3ccc(-c4ccccc4)cc3)c3cnccc23)c1` (stereo not shown) [Example 134, 2-([1,1′-biphenyl]-4-yl)-N-((5-(3-methoxyphenyl)isoquinolin-8-yl)methyl)propanamide], the IC50 is 0.324 µM.

In the case of `COc1cccc(-c2ccc(CNC(=O)C(C)c3cccc(F)c3)c3cnccc23)c1` (stereo not shown) [Example 135, 2-(3-fluorophenyl)-N-((5-(3-methoxyphenyl)isoquinolin-8-yl)methyl)propanamide], the IC50 worked out at 2 µM.

With `COc1cccc(-c2ccc(CNC(=O)C(C)c3ccc(C#N)cc3)c3cnccc23)c1` (stereo not shown) [Example 136, 2-(4-cyanophenyl)-N-((5-(3-methoxyphenyl)isoquinolin-8-yl)methyl)propanamide], the IC50 worked out at 0.256 µM.

As for `COc1cccc(-c2ccc(CNC(=O)C(C)c3ccc(OC(F)(F)F)cc3)c3cnccc23)c1` (stereo not shown) [Example 137, N-((5-(3-methoxyphenyl)isoquinolin-8-yl)methyl)-2-(4-(trifluoromethoxy)phenyl)propanamide], the IC50 worked out at 0.484 µM.

`COc1cccc(-c2ccc(CNC(=O)C(C)c3ccccc3)c3cnccc23)c1` (stereo not shown) [Example 138, N-((5-(3-methoxyphenyl)isoquinolin-8-yl)methyl)-2-phenylpropanamide]: the IC50 was 0.298 µM.

`COc1cccc(-c2ccc(CNC(=O)C(C)c3ccccc3F)c3cnccc23)c1` (stereo not shown) [Example 139, 2-(2-fluorophenyl)-N-((5-(3-methoxyphenyl)isoquinolin-8-yl)methyl)propanamide]: the IC50 is 0.213 µM.

On to `COc1cccc(-c2ccc(CNC(=O)C(C)c3ccc(C(F)(F)F)cc3)c3cnccc23)c1` (stereo not shown) [Example 141, N-((5-(3-methoxyphenyl)isoquinolin-8-yl)methyl)-2-(4-(trifluoromethyl)phenyl)propanamide], for which the IC50 was found to be 0.566 µM.

As to `COc1cccc(-c2ccc(CNC(=O)C(C)c3ccc4cc(OC)ccc4c3)c3cnccc23)c1` (stereo not shown) [Example 143, 2-(6-methoxynaphthalen-2-yl)-N-((5-(3-methoxyphenyl)isoquinolin-8-yl)methyl)propanamide], the IC50 was 0.197 µM.

As to `COc1cccc(-c2ccc(CNC(=O)C(C)c3ccc(C4CCCCC4)c(Cl)c3)c3cnccc23)c1` (stereo not shown) [Example 148, 2-(3-chloro-4-cyclohexylphenyl)-N-((5-(3-methoxyphenyl)isoquinolin-8-yl)methyl)propanamide], the IC50 turned out to be 6.89 µM.

As for `COc1cccc(-c2ccc(CNC(=O)Cc3ccc(C(F)(F)F)cc3)c3ncccc23)c1` [Example 150, N-((5-(3-methoxyphenyl)quinolin-8-yl)methyl)-2-(4-(trifluoromethyl)phenyl)acetamide], the IC50 is 0.426 µM.

For `COc1cccc(-c2ccc(CNC(=O)Nc3ccc(OC(F)(F)F)cc3)c3cnccc23)c1` [Example 151, 1-((5-(3-methoxyphenyl)isoquinolin-8-yl)methyl)-3-(4-(trifluoromethoxy)phenyl)urea], the IC50 turned out to be 0.938 µM.

For the compound `COc1cc(OC)cc(-c2ccc(CNC(=O)Nc3cccc(Cl)c3Cl)c3cnccc23)c1` [Example 152, 1-(2,3-dichlorophenyl)-3-((5-(3,5-dimethoxyphenyl)isoquinolin-8-yl)methyl)urea], the IC50 came out at 0.198 µM.

Take `COC(=O)c1ccccc1NC(=O)NCc1ccc(-c2cccc(OC)c2)c2ccncc12` [Example 153, methyl 2-(3-((5-(3-methoxyphenyl)isoquinolin-8-yl)methyl)ureido)benzoate]: the IC50 was 1.11 µM.

Consider `COc1cccc(-c2ccc(CNC(=O)c3ccn(C)n3)c3cnccc23)c1` [Example 154, N-((5-(3-methoxyphenyl)isoquinolin-8-yl)methyl)-1-methyl-1H-pyrazole-3-carboxamide], for which the IC50 was 3.27 µM.

`COc1cccc(-c2ccc(CNC(=O)Nc3cccc(-c4ccccc4)c3)c3cnccc23)c1` [Example 157, 1-([1,1′-biphenyl]-3-yl)-3-((5(3-methoxyphenyl)isoquinolin-8-yl)methyl)urea]: the IC50 was determined as 0.116 µM.

For `C=C(c1ccccc1)c1ccc(CNC(=O)Nc2cccc(Cl)c2Cl)c2cnccc12` [Example 158, 1-(2,3-dichlorophenyl)-3-((5-(1-phenylyinyl)isoquinolin-8-yl)methyl)urea], the IC50 worked out at 0.374 µM.

With `COCCCc1ccc(CNC(=O)Nc2cccc(Cl)c2Cl)c2cnccc12` [Example 159, 1-(2,3-dichlorophenyl)-3-((5-(3-methoxypropyl)isoquinolin-8-yl)methyl)urea], the IC50 was found to be 0.478 µM.

`CNC(=O)c1cccc(-c2ccc(CNC(=O)Nc3cccc(Cl)c3Cl)c3cnccc23)c1` [Example 161, 3-(8-((3-(2,3-dichlorophenyl)ureido)methyl)isoquinolin-5-yl)-N-methylbenzamide]: the IC50 came out at 1.21 µM.

In the case of `CC(C)(C)OC(=O)N1CC=C(c2ccc(CNC(=O)Nc3cccc(Cl)c3Cl)c3cnccc23)CC1` [Example 162, tert-butyl 4-(8-((3-(2,3-dichlorophenyl)ureido)methyl)isoquinolin-5-yl)-5,6-dihydropyridine-1(2H)-carboxylate], the IC50 came to 1.95 µM.
